Test results reported in paper PMC10258794, “To Fold or Not to Fold: Diastereomeric Optimization of an α-Helical Antimicrobial Peptide” (Journal of Medicinal Chemistry, 2023).
Values after ≈ are worked out from the molar mass of the structure shown. Where two headings read alike, the source gives them in different places.

Key:
A. baumannii ATCC19606 = test system: A. baumannii ATCC19606
Method: (§1) Antimicrobial activity was determined for all peptides on E. coli W3110, P. aeruginosa PAO1, A. baumannii ATCC19606, K. pneumoniae NCTC418, and methicillin-resistant S. aureus COL and for selected peptides on P. aeruginosa PA14 and the polymyxin B-resistant derivatives PA14 4.13, PA14 4.18, and PA14 2P4 as well as the clinical isolates ZEM-1A and ZEM9A, K. pneumoniae OXA-48, Enterobacter cloacae, Stenotrophomonas maltophilia, B. cenocepacia, and Staphylococus epidermis. To determine the MIC, the broth microdilution method was used.[75] A single bacterial colony was grown in LB medium overnight at 37 °C and 180 rpm shaking. The compounds were prepared as stock solutions of 2 mg/mL in sterilized milliQ deionized water, added to the first well of 96-well sterile, polypropylene round-bottom microtiter plates (TPP, untreated, Corning Incorporated, Kennebunk, USA), and diluted serially by 1/2. […] The bacterial inoculum was prepared by measuring the absorbance of the overnight culture, which was diluted to concentration of the bacteria was quantified by measuring absorbance at 600 nm and diluted to an OD600 of 0.022 in MH medium pH 7.4 (Sigma-Aldrich, Buchs, Switzerland). The sample solutions (150 μL) were mixed with 4 μL of diluted bacterial suspension with a final inoculation of about 5 × 10^5 CFU. For each test, two columns of the plate were kept for sterility control (MH medium only) and growth control (MH medium with bacterial inoculum, no compound). […] The plates were incubated at 37 °C for 16–20 h under static conditions. 15 μL of 3-(4,5-dimethylthiazol-2-yl)-2,5-diphenyltetrazolium bromide (MTT)[76] (1 mg/mL in sterilized milliQ deionized water) was added to each well, and the plates were incubated at room temperature until MTT staining was completed. The MIC was defined as the lowest concentration of the dendrimer that inhibits the visible growth of the tested bacteria (yellow) with the unaided eye.

S. aureus COL MRSA = conditions: for MIC S. aureus COL MRSA: MH broth pH 7.4, 16–20 h, 37 °C; for MIC S. aureus COL: supplementary CSV, ranges of Table 1 given as one number
Method: as §1

E. coli W3110 = conditions: MH broth pH 7.4, 16–20 h, 37 °C
Method: as §1

P. aeruginosa PAO1 = test system: P. aeruginosa PAO1
Method: as §1

K. pneumoniae NCTC418 = conditions: MH broth pH 7.4, 16–20 h, 37 °C
Method: as §1

[1] = MH broth pH 7.4, 16–20 h, 37 °C
[2] = supplementary CSV, ranges of Table 1 given as one number

Compound | MIC A. baumannii ATCC19606 (A. baumannii ATCC19606; [1]) | MIC A. baumannii ATCC19606 (A. baumannii ATCC19606; [2]) | MIC S. aureus COL MRSA (S. aureus COL MRSA) | MIC E. coli W3110 (E. coli W3110) | MIC P. aeruginosa PAO1 (P. aeruginosa PAO1; [1]) | MIC P. aeruginosa PAO1 (P. aeruginosa PAO1; [2]) | MIC K. pneumoniae NCTC418 (K. pneumoniae NCTC418) | MIC S. aureus COL (S. aureus COL MRSA)
CC(C)C[C@H](NC(=O)[C@H](CC(C)C)NC(=O)[C@@H](CC(C)C)NC(=O)[C@@H](CCCCN)NC(=O)[C@H](CC(C)C)NC(=O)[C@H](CC(C)C)NC(=O)[C@H](CCCCN)NC(=O)[C@@H](CC(C)C)NC(=O)[C@@H](CC(C)C)NC(=O)[C@H](CCCCN)NC(=O)[C@@H](N)CCCCN)C(N)=O [HP20, KKllKLLklLL] | 32 to 64 µg/mL | 48 µg/mL (≈ 36.3 µM) | >64 µg/mL | 8 µg/mL (≈ 6.05 µM) | 16 µg/mL (≈ 12.1 µM) | 16 µg/mL (≈ 12.1 µM) | >64 µg/mL | 
CC(C)C[C@H](NC(=O)[C@H](CC(C)C)NC(=O)[C@H](CC(C)C)NC(=O)[C@H](CCCCN)NC(=O)[C@@H](CC(C)C)NC(=O)[C@@H](CC(C)C)NC(=O)[C@H](CCCCN)NC(=O)[C@@H](CC(C)C)NC(=O)[C@@H](CC(C)C)NC(=O)[C@H](CCCCN)NC(=O)[C@@H](N)CCCCN)C(N)=O [HP14, KKllKllKLLL] | 4 to 8 µg/mL | 6 µg/mL (≈ 4.54 µM) | 16 to 32 µg/mL | 2 µg/mL (≈ 1.51 µM) | 8 µg/mL (≈ 6.05 µM) | 8 µg/mL (≈ 6.05 µM) | >64 µg/mL | 
CC(C)CC(NC(=O)C(CC(C)C)NC(=O)C(CC(C)C)NC(=O)C(CCCCN)NC(=O)C(CC(C)C)NC(=O)[C@H](CC(C)C)NC(=O)C(CCCCN)NC(=O)C(CC(C)C)NC(=O)C(CC(C)C)NC(=O)C(CCCCN)NC(=O)C(N)CCCCN)C(N)=O (mixture of isomers) [sr-ln65L^6] | 8 µg/mL (≈ 6.05 µM) | 8 µg/mL (≈ 6.05 µM) | 16 µg/mL (≈ 12.1 µM) | 4 µg/mL (≈ 3.03 µM) | 8 µg/mL (≈ 6.05 µM) | 8 µg/mL (≈ 6.05 µM) | 16 to 32 µg/mL | 16 µg/mL (≈ 12.1 µM)
CC(C)C[C@H](NC(=O)[C@H](CC(C)C)NC(=O)[C@@H](CCCCN)NC(=O)[C@H](CC(C)C)NC(=O)[C@H](CC(C)C)NC(=O)[C@@H](CCCCN)NC(=O)[C@H](CC(C)C)NC(=O)[C@H](CC(C)C)NC(=O)[C@@H](CCCCN)NC(=O)[C@H](N)CCCCN)C(=O)N[C@H](CC(C)C)C(N)=O [HP27, kkLLkLLkLLl] | 32 µg/mL (≈ 24.2 µM) | 32 µg/mL (≈ 24.2 µM) | 32 µg/mL (≈ 24.2 µM) | 4 µg/mL (≈ 3.03 µM) | 8 µg/mL (≈ 6.05 µM) | 8 µg/mL (≈ 6.05 µM) | >64 µg/mL | 32 µg/mL (≈ 24.2 µM)
CC(C)C[C@H](NC(=O)[C@H](CC(C)C)NC(=O)[C@H](CC(C)C)NC(=O)[C@H](CCCCN)NC(=O)[C@@H](CC(C)C)NC(=O)[C@@H](CC(C)C)NC(=O)[C@@H](CCCCN)NC(=O)[C@H](CC(C)C)NC(=O)[C@H](CC(C)C)NC(=O)[C@H](CCCCN)NC(=O)[C@@H](N)CCCCN)C(N)=O [HP9, KKLLkllKLLL] |  |  | >64 µg/mL | 8 µg/mL (≈ 6.05 µM) | 64 µg/mL (≈ 48.4 µM) | 64 µg/mL (≈ 48.4 µM) | >64 µg/mL | 
